Assay results reported in patent US20250325552A1, “SUBSTITUTED THIADIAZOLYL DERIVATIVES AS DNA POLYMERASE THETA INHIBITORS” (IDEAYA Biosciences, Inc., priority 2020, published 2025).

molecular target: Polθ theta (1-899) (hPolQ) (Homo sapiens (Human), UniProt O75417); experiment: Biological Assay 1: Polθ ATPase activity, NADH oxidation-coupled enzymatic assay (10 nM enzyme, 30 min); assay type: biochemical; details: Polθ (1-899) 10 nM, 100 μM ATP, 300 nM dT50 ssDNA; Examples 1 to 268; read-out: ATPase NADH coupling:Standard Screening:hPolQ IC50
Outline: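 Polθ (1-899) at 10 nM was preincubated with compound for 15 min at room temperature in 20 mM Tris pH 7.80, 80 mM KCl, 10 mM MgCl2. An equal volume of 100 μM ATP, 300 nM dT50 ssDNA and a PK/LDH–NADH coupling system was then added. A340 was read each minute for 30 min. IC50 came from rate slopes over 10-point series with a four-parameter fit.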

Sequence of Polθ theta (1-899) (hPolQ) (O75417 1-899): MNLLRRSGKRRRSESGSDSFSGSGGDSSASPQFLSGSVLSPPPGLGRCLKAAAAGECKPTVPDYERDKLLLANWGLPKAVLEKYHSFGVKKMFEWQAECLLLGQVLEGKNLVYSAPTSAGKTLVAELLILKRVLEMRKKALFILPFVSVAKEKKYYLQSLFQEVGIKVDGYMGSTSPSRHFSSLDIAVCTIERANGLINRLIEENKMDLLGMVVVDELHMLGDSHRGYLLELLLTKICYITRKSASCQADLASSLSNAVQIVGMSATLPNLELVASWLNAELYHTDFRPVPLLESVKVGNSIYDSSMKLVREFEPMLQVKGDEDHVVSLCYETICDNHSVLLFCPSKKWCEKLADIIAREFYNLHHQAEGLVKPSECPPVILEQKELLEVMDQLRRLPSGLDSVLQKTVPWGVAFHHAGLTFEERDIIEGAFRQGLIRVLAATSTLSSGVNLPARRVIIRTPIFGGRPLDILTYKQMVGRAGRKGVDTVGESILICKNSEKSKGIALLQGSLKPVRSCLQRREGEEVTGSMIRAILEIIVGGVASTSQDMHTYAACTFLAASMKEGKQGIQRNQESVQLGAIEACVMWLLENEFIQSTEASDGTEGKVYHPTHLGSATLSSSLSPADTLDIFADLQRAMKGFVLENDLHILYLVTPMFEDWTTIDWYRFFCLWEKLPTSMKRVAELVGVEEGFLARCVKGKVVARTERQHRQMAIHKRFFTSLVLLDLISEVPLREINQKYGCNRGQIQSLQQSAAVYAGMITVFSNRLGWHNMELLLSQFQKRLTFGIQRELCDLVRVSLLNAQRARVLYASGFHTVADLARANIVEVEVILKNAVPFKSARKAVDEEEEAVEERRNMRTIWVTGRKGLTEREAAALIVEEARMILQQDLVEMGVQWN

IC50 [µM]	SMILES
≤ 0.2	COc1ccc(C)cc1-c1cc(C)ncc1C(=O)Nc1nnc(OCc2cnc(CO)cn2)s1 [Example 134, N-(5-((5-(hydroxymethyl)pyrazin-2-yl)methoxy)-1,3,4-thiadiazol-2-yl)-4-(2-methoxy-5-methylphenyl)-6-methylpyridine-3-carboxamide]
≤ 0.2	COc1cccc(F)c1-c1cc(C)ncc1C(=O)Nc1nnc(OCC2CCCn3nccc32)s1 (stereo not drawn) [Example 135, 4-(2-fluoro-6-methoxyphenyl)-6-methyl-N-(5-(4H,5H,6H,7H-pyrazolo(1,5-a)pyridin-4-ylmethoxy)-1,3,4-thiadiazol-2-yl)pyridine-3-carboxamide]
≤ 0.2	COc1cnc(Cl)cc1-c1cc(C)ncc1C(=O)Nc1nnc(OCC23CCC(O)(CC2)CC3)s1 [Example 136, 2′-chloro-N-(5-((4-hydroxybicyclo(2.2.2)octan-1-yl)methoxy)-1,3,4-thiadiazol-2-yl)-5′-methoxy-6-methyl-(4,4′-bipyridine)-3-carboxamide]
≤ 0.2	COc1cnc(Cl)cc1-c1cc(C)ncc1C(=O)Nc1nnc(OC[C@H]2CC[C@H](OC)CC2)s1 [Example 137, 2′-chloro-5′-methoxy-N-(5-(((1r,4r)-4-methoxycyclohexyl)methoxy)-1,3,4-thiadiazol-2-yl)-6-methyl-[4,4′-bipyridine]-3-carboxamide]
≤ 0.2	COc1cnc(Cl)cc1-c1cc(C)ncc1C(=O)Nc1nnc(OCC2CC3(CC(O)C3)C2)s1 (stereo not drawn) [Example 138, 2′-chloro-N-(5-((6-hydroxyspiro[3.3]heptan-2-yl)methoxy)-1,3,4-thiadiazol-2-yl)-5′-methoxy-6-methyl-[4,4′-bipyridine]-3-carboxamide]
≤ 0.2	COc1cnc(C)cc1-c1cc(C)ncc1C(=O)Nc1nnc(OCC2CC3(CC(O)C3)C2)s1 (stereo not drawn) [Example 139, N-(5-((6-hydroxyspiro[3.3]heptan-2-yl)methoxy)-1,3,4-thiadiazol-2-yl)-5′-methoxy-2′,6-dimethyl-[4,4′-bipyridine]-3-carboxamide]
≤ 0.2	COc1cccc(F)c1-c1cc(C)ncc1C(=O)Nc1nnc(OCc2ccc(C3(C)COC3)cn2)s1 [Example 140, 4-(2-fluoro-6-methoxyphenyl)-6-methyl-N-(5-((5-(3-methyloxetan-3-yl)pyridin-2-yl)methoxy)-1,3,4-thiadiazol-2-yl)nicotinamide]
≤ 0.2	COc1cccc(F)c1-c1cc(C)ncc1C(=O)Nc1nnc(OCC2CC3(CC(O)C3)C2)s1 (stereo not drawn) [Example 141, 4-(2-fluoro-6-methoxyphenyl)-N-(5-((6-hydroxyspiro(3.3)heptan-2-yl)methoxy)-1,3,4-thiadiazol-2-yl)-6-methylpyridine-3-carboxamide]
≤ 0.2	COc1ccc(Cl)cc1-c1cnncc1C(=O)Nc1nnc(OCC23CCC(F)(CC2)CC3)s1 [Example 142, 5-(5-chloro-2-methoxyphenyl)-N-(5-((4-fluorobicyclo(2.2.2)octan-1-yl)methoxy)-1,3,4-thiadiazol-2-yl)pyridazine-4-carboxamide]
≤ 0.2	COc1cnc(Cl)cc1-c1cc(C)ncc1C(=O)Nc1nnc(OCC23CC(C(C)(C)O)(C2)C3)s1 [Example 143, 2′-chloro-N-(5-((3-(2-hydroxypropan-2-yl)bicyclo(1.1.1)pentan-1-yl)methoxy)-1,3,4-thiadiazol-2-yl)-5′-methoxy-6-methyl-(4,4′-bipyridine)-3-carboxamide]
≤ 0.2	CN=[S@](C)(=O)c1ccc(COc2nnc(NC(=O)c3cnc(C)cc3-c3cc(Cl)ccc3OC)s2)nc1 [Example 144, (R)-4-(5-chloro-2-methoxyphenyl)-N-(5-((5-(N,S-dimethylsulfonimidoyl)pyridin-2-yl)methoxy)-1,3,4-thiadiazol-2-yl)-6-methylnicotinamide]
≤ 0.2	COc1cnc(Cl)cc1-c1cc(C)ncc1C(=O)Nc1nnc(OCc2cnc(CO)cn2)s1 [Example 145, 2′-chloro-N-(5-((5-(hydroxymethyl)pyrazin-2-yl)methoxy)-1,3,4-thiadiazol-2-yl)-5′-methoxy-6-methyl-(4,4′-bipyridine)-3-carboxamide]
